Patent US11046716B2, “Beta-lactamase inhibitors” (priority 2015, dated 2021)

Columns and labels:
[1] = tested on: K. pneumoniae expressing the class A carbapenemase KPC-2 and the class B carbapenemase VIM-4; assay: Broth microdilution MIC assay with meropenem, K. pneumoniae KPC-2 and VIM-4; assay type: cell-based; details: Fixed Mero (meropenem) 4 μg/mL; K. p. A-1797 KPC-2 VIM-4
How it was run: (§1)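 Test compounds in 2-fold dilutions (16 to 0.125 μg/mL final) in CAMHB were combined with a β-lactam at a static 4 μg/ml final. Plates were inoculated per CLSI broth microdilution with the β-lactamase-producing strain (pre-grown 3-5 h) and incubated 16-20 h at 37° C. MIC of test compound was read visually.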

SHV-5 = target: T1, SHV-5 (Klebsiella pneumoniae, UniProt P0A3M1); assay: β-lactamase enzyme inhibition assay, SHV-5 (cefotaxime substrate); assay type: biochemical
T1 construct: made in house; host or cells: E. coli BL21(DE3)
How it was run: (§2)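 Native untagged β-lactamases were expressed in E. coli BL21(DE3), then purified by cation exchange and gel filtration. Enzyme was preincubated with inhibitor for 15 min at 37 °C before substrate was added. Imipenem (A300) served KPC-2 and cefotaxime (A260) served SHV-5. IC50 was taken from initial hydrolysis rates relative to no-inhibitor controls.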

AmpC = target: T2, AmpC (Enterobacter cloacae, UniProt P05364); assay: β-lactamase enzyme inhibition assay, p99 AmpC (nitrocefin substrate); assay type: biochemical
T2 construct: made in house; host or cells: E. coli BL21(DE3)
How it was run: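 Native untagged β-lactamases were expressed in E. coli BL21(DE3), then purified by cation exchange and gel filtration. Enzyme was preincubated with inhibitor for 15 min at 37 °C before substrate was added. IC50 was taken from initial hydrolysis rates relative to no-inhibitor controls.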

[2] = tested on: P. aeruginosa expressing the Class B carbapenemase VIM-2; assay: Broth microdilution MIC assay with meropenem, P. aeruginosa VIM-2; assay type: cell-based; details: Fixed Mero (meropenem) 4 μg/mL; P. aerug. 2775 VIM-2
How it was run: as §1

[3] = tested on: E. cloacae expressing the Class C P99; assay: Broth microdilution MIC assay with ceftazidime, E. cloacae P99; assay type: cell-based; details: Fixed CAZ (ceftazidime) 4 μg/mL; E. cl. 144200 p99 AmpC
How it was run: as §1

[4] = tested on: E. coli expressing the Class A Extended Spectrum Beta-Lactamase (ESBL) CTX-M-15; assay: Broth microdilution MIC assay with ceftazidime, E. coli CTX-M-15; assay type: cell-based; details: Fixed CAZ (ceftazidime) 4 μg/mL; E. coli ESBL4 CTX-M-15
How it was run: as §1

KPC-2 = target: T3, KPC-2 (Klebsiella pneumoniae, UniProt Q9F663); assay: β-lactamase enzyme inhibition assay, KPC-2 (imipenem substrate); assay type: biochemical; details: Class A; imipenem substrate, 300 nm; read-out: KPC-2
T3 construct: made in house; host or cells: E. coli BL21(DE3)
How it was run: as §2

OXA-48 = OXA-48 (UniProt Q6XEC0); assay: β-lactamase enzyme inhibition assay, Class D oxacillinase; assay type: biochemical; details: read-out: OXA-48
[5] = tested on: K. pneumoniae producing the Class D carbapenemase OXA-48; assay: Broth microdilution MIC assay with meropenem, K. pneumoniae OXA-48; assay type: cell-based; details: Fixed Mero (meropenem) 4 μg/mL; K. p. 11978 OXA-48
How it was run: as §1

VIM-2 = target: T4, VIM-2 (Escherichia coli, UniProt Q5U7L7); assay: β-lactamase enzyme inhibition assay, VIM-2 (nitrocefin substrate); assay type: biochemical; details: Class B; nitrocefin substrate, 486 nm; read-out: VIM-2
T4 construct: made in house; host or cells: E. coli BL21(DE3)
How it was run: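 Purified VIM-2 preincubated with inhibitor for 15 min at 37° C, then nitrocefin (100 μM final) added and absorbance at 486 nm followed for 10 min. Maximum hydrolysis rates compared with inhibitor-free controls; IC50 fitted from percent inhibition across inhibitor concentrations.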

[6] = tested on: K. pneumoniae expressing the Class A carbapenemase KPC-2; assay: Broth microdilution MIC assay with meropenem, K. pneumoniae KPC-2; assay type: cell-based; details: Fixed Mero (meropenem) 4 μg/mL; K. p. 156319 KPC-3
How it was run: as §1

T1 sequence (P0A3M1 22-286): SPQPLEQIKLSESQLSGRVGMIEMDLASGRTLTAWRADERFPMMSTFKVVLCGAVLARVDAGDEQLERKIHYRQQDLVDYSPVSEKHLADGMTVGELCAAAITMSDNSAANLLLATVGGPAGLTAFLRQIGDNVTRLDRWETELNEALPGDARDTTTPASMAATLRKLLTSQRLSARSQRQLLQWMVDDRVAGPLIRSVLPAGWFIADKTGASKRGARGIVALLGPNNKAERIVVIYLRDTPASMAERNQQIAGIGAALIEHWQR
T2 sequence (P05364 21-381): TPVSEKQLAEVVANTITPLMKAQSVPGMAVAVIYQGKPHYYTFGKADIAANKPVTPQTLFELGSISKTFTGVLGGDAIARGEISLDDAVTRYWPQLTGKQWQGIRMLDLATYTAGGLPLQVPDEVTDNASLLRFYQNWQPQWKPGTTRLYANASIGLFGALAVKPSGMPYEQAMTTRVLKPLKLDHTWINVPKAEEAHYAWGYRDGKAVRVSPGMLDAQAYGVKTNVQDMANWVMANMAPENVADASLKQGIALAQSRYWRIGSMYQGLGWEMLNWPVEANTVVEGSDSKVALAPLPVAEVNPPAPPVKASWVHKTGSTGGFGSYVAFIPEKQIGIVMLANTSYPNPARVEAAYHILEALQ
T3 sequence (Q9F663 25-293, looked up): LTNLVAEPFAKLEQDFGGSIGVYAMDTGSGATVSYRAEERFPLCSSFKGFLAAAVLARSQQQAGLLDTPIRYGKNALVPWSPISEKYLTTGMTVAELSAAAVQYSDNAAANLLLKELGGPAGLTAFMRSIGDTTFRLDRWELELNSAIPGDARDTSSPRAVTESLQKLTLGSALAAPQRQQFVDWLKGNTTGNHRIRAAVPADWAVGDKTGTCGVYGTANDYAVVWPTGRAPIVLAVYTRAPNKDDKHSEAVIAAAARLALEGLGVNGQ

SMILES | MIC (μg/mL) of Exemplary Compounds in presence of fixed β-lactams: K. p. A-1797 KPC-2 VIM-4 [1] | IC50 (SHV-5) [nM] | IC50 (AmpC) [nM] | MIC (μg/mL) of Exemplary Compounds in presence of fixed β-lactams: P. aerug. 2775 VIM-2 [2] | MIC (μg/mL) of Exemplary Compounds in presence of fixed β-lactams: E. cl. 144200 p99 AmpC [3] | MIC (μg/mL) of Exemplary Compounds in presence of fixed β-lactams: E. coli ESBL4 CTX-M-15 [4] | IC50 (KPC-2) [nM] | IC50 (OXA-48) [nM] | MIC (μg/mL) of Exemplary Compounds in presence of fixed β-lactams: K. p. 11978 OXA-48 [5] | IC50 (VIM-2) [nM] | MIC (μg/mL) of Exemplary Compounds in presence of fixed β-lactams: K. p. 156319 KPC-3 [6]
NCCS(=O)(=O)NCc1cn(CC(=O)N[C@H]2Cc3cccc(C(=O)O)c3OB2O)nn1 [Example 69, (R)-3-(2-(4-(((2-aminoethyl)sulfonamido)methyl)-1H-1,2,3-triazol-1-yl)acetamido)-2-hydroxy-3,4-dihydro-2H-benzo[e][1,2]oxaborinine-8-carboxylic acid] | B (B represents an MIC between 1 and 16 μg/mL inclusive) | < 100 | < 100 | C (C represents an MIC of <1 μg/mL) | C (C represents an MIC of <1 μg/mL) | C (C represents an MIC of <1 μg/mL) | < 100 | 1000 to 10000 | B (B represents an MIC between 1 and 16 μg/mL inclusive) | 100 to 1000 | B (B represents an MIC between 1 and 16 μg/mL inclusive)
NCCn1ncnc1CC(=O)N[C@H]1Cc2cccc(C(=O)O)c2OB1O [Example 119, (R)-3-(2-(1-(2-aminoethyl)-1H-1,2,4-triazol-5-yl)acetamido)-2-hydroxy-3,4-dihydro-2H-benzo[e][1,2]oxaborinine-8-carboxylic acid] | B (B represents an MIC between 1 and 16 μg/mL inclusive) | < 100 | < 100 | C (C represents an MIC of <1 μg/mL) | C (C represents an MIC of <1 μg/mL) | C (C represents an MIC of <1 μg/mL) | 100 to 1000 | 100 to 1000 | B (B represents an MIC between 1 and 16 μg/mL inclusive) | 100 to 1000 | C (C represents an MIC of <1 μg/mL)
CCn1nnnc1CC(=O)N[C@H]1Cc2cccc(C(=O)O)c2OB1O [Example 54, (R)-3-(2-(1-ethyl-1H-tetrazol-5-yl)acetamido)-2-hydroxy-3,4-dihydro-2H-benzo[e][1,2]oxaborinine-8-carboxylic acid] | B (B represents an MIC between 1 and 16 μg/mL inclusive) | < 100 | < 100 | B (B represents an MIC between 1 and 16 μg/mL inclusive) | C (C represents an MIC of <1 μg/mL) | C (C represents an MIC of <1 μg/mL) | < 100 | 1000 to 10000 | B (B represents an MIC between 1 and 16 μg/mL inclusive) | 100 to 1000 | B (B represents an MIC between 1 and 16 μg/mL inclusive)
NCCn1cnc(C(=O)N[C@H]2Cc3cccc(C(=O)O)c3OB2O)c1 [Example 72, (R)-3-(1-(2-aminoethyl)-1H-imidazole-4-carboxamido)-2-hydroxy-3,4-dihydro-2H-benzo[e][1,2]oxaborinine-8-carboxylic acid] | B (B represents an MIC between 1 and 16 μg/mL inclusive) | < 100 | < 100 | B (B represents an MIC between 1 and 16 μg/mL inclusive) | C (C represents an MIC of <1 μg/mL) | C (C represents an MIC of <1 μg/mL) | < 100 | 100 to 1000 | B (B represents an MIC between 1 and 16 μg/mL inclusive) | 100 to 1000 | C (C represents an MIC of <1 μg/mL)
N[C@@H]1CCN(C(=O)c2cn(CC(=O)N[C@H]3Cc4cccc(C(=O)O)c4OB3O)nn2)C1 [Example 85, (R)-3-(2-(4-((R)-3-aminopyrrolidine-1-carbonyl)-1H-1,2,3-triazol-1-yl)acetamido)-2-hydroxy-3,4-dihydro-2H-benzo[e][1,2]oxaborinine-8-carboxylic acid] | B (B represents an MIC between 1 and 16 μg/mL inclusive) | 100 to 1000 | < 100 | C (C represents an MIC of <1 μg/mL) | C (C represents an MIC of <1 μg/mL) | C (C represents an MIC of <1 μg/mL) | 100 to 1000 | 100 to 1000 | B (B represents an MIC between 1 and 16 μg/mL inclusive) | 100 to 1000 | C (C represents an MIC of <1 μg/mL)
NCCn1cc(Cn2nnc(CC(=O)N[C@H]3Cc4cccc(C(=O)O)c4OB3O)n2)nn1 [Example 124, (R)-3-(2-(2-((1-(2-aminoethyl)-1H-1,2,3-triazol-4-yl)methyl)-2H-tetrazol-5-yl)acetamido)-2-hydroxy-3,4-dihydro-2H-benzo[e][1,2]oxaborinine-8-carboxylic acid] | B (B represents an MIC between 1 and 16 μg/mL inclusive) | < 100 | < 100 | A (A represents an MIC>16 μg/mL) | C (C represents an MIC of <1 μg/mL) | C (C represents an MIC of <1 μg/mL) | < 100 | 100 to 1000 | B (B represents an MIC between 1 and 16 μg/mL inclusive) | 1000 to 10000 | B (B represents an MIC between 1 and 16 μg/mL inclusive)
Nc1cc(-c2cn(CC(=O)N[C@H]3Cc4cccc(C(=O)O)c4OB3O)nn2)ccn1 [Example 62, (R)-3-(2-(4-(2-aminopyridin-4-yl)-1H-1,2,3-triazol-1-yl)acetamido)-2-hydroxy-3,4-dihydro-2H-benzo[e][1,2]oxaborinine-8-carboxylic acid] | A (A represents an MIC>16 μg/mL) | < 100 | < 100 | B (B represents an MIC between 1 and 16 μg/mL inclusive) | C (C represents an MIC of <1 μg/mL) | C (C represents an MIC of <1 μg/mL) | < 100 | < 100 | B (B represents an MIC between 1 and 16 μg/mL inclusive) | 100 to 1000 | C (C represents an MIC of <1 μg/mL)
O=C(Cn1nnc(C(=O)O)c1C(=O)O)N[C@H]1Cc2cccc(C(=O)O)c2OB1O [Example 16, (R)-1-(2-((8-carboxy-2-hydroxy-3,4-dihydro-2H-benzo[e][1,2]oxaborinin-3-yl)amino)-2-oxoethyl)-1H-1,2,3-triazole-4,5-dicarboxylic acid] | B (B represents an MIC between 1 and 16 μg/mL inclusive) | < 100 | < 100 | B (B represents an MIC between 1 and 16 μg/mL inclusive) | C (C represents an MIC of <1 μg/mL) | B (B represents an MIC between 1 and 16 μg/mL inclusive) | < 100 | < 100 | B (B represents an MIC between 1 and 16 μg/mL inclusive) | 1000 to 10000 | B (B represents an MIC between 1 and 16 μg/mL inclusive)
